# Results reported in patent US9303042B2, “Triazolothienopyrimidine compound inhibitors of urea transporters and methods of using inhibitors” (The Regents of the University of California, priority 2012, dated 2016).
# How the values were obtained:
# human UT-B = target: T1, human UT-B (Homo sapiens, UniProt Q13336); test: Stopped-flow light scattering assay of erythrocyte urea transport, human erythrocytes; type: cell-based; conditions: urea influx, 100 mM inwardly directed urea gradient
# T1 construct: endogenous in cells; host or cells: erythrocytes in human venous whole blood
# T1 sequence (Q13336 1-389): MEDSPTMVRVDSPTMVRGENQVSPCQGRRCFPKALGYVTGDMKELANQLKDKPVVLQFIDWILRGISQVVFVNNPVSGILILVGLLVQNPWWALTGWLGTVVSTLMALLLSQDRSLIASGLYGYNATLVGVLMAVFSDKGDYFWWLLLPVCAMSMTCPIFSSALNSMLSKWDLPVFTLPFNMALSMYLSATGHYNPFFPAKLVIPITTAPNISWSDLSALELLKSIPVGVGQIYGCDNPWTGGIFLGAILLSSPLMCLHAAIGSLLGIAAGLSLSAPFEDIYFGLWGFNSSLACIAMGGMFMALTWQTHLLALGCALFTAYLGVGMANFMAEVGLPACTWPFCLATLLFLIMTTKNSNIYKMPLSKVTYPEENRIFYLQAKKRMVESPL
# Experimental: Erythrocyte urea and water permeabilities were measured by stopped-flow light scattering using a Hi-Tech Sf-51 instrument (Wiltshire, UK). For measurement of urea permeability, dilutions of whole blood (mouse or human) in PBS (hematocrit ˜0.5%) were incubated with test compounds for 5 min and then subjected to a 100-mM inwardly directed urea gradient. After an initial osmotic shrinking phase, the kinetics of increasing cell volume caused by urea influx was measured as the time-course of 90° scattered light intensity at 530 nm, with increasing cell volume producing reduced scattered light intensity. Urea permeability and percentage inhibition were computed as described (see, e.g., Levin et al., FASEB J. supra, 2007)). In some experiments, different urea gradients (25-200 mM) were used, or inhibitor was added only to the erythrocyte-containing or urea-containing solutions. […] Osmotic water permeability was measured using a 100 mM gradient of sucrose.
# UT-B inhibition potency was assayed quantitatively by stopped-flow light scattering from the kinetics of urea influx in response to an inwardly directed urea gradient (see Materials and Methods above). […]
# Measurements were done using a Hi-Tech Sf-51 instrument (Wiltshire, UK). […] The kinetics of increasing cell volume caused by urea influx was measured as the time-course of 90° scattered light intensity at 530 nm. […]
# UT-A3 = target: T2, UT-A3 (Mus musculus, UniProt Q8R4T9); test: Transepithelial urea transport in MDCK cells stably expressing UT-A3; type: cell-based; conditions: UTBinh-14 10 μM, forskolin
# T2 construct: expressed in transfected cells
# T2 sequence (Q8R4T9 1-461 isoform Q8R4T9-3): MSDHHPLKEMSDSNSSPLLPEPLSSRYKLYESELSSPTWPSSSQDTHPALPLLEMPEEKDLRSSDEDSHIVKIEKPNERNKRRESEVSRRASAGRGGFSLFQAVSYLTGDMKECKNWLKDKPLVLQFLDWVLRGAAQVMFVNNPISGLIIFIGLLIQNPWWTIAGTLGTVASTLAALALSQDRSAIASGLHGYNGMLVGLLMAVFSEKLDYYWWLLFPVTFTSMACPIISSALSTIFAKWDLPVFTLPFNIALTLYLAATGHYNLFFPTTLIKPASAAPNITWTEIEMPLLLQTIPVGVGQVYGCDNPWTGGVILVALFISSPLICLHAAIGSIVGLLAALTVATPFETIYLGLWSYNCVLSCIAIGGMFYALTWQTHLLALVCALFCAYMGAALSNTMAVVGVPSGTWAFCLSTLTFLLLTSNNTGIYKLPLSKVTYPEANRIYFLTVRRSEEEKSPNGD
# Experimental: UT-B selectivity and cytotoxicity were studied. Because of sequence similarities between UT-B and UT-A isoforms, UT-A inhibition was measured. Transepithelial urea transport was measured in MDCK cells stably expressing UT-A1, UT-A3, and UT-B. UT-A1 and UT-A3 are cAMP-regulated urea transporters expressed in kidney tubule epithelia (see, e.g., Frohlich et al., Am. J. Physiol. Cell Physiol. 291:C600-606 (2006); Tickle et al., Am. J. Physiol. Regul. Integr. Comp Physiol 0.297: R323-329 (2009); Stewart et al., Am. J. Physiol. Renal Physiol. 292:F1157-63 (2006)). MDCK cells were cultured on collagen-coated porous filters for measurement of urea accumulation in the apical solution following addition of urea to the basolateral solution.
# cDNAs encoding mouse UT-A3 and UT-B were cloned into pcDNA3.1 and used to generate stably transfected MDCK cell lines. MDCK cells stably expressing rat UT-A1 (MDCK-UT-A1) (see, e.g., Frohlich et al., supra) were obtained as described (see, e.g., Levin et al., FASEB J., supra). Cells were cultured in DMEM containing 10% FBS and 0.5 mg/mL G418. […] Urea flux in the basolateral-to-apical direction across unstimulated and forskolin-stimulated cell layers was measured in response to a 15-mM urea gradient. […]
# MDCK cells = test: MTT cytotoxicity assay; type: cell-based, canine; conditions: up to 10 μM, 24 h
# mice = test: Urinary concentration in mice; type: in vivo, mouse
# Experimental: In some studies, mice were placed on low, normal or […] diets (4%, 20% or 40% casein, Harlan Labs.) for 1 week prior study of dDAVP effects. […] Urea concentration was determined by a colorimetric enzymatic assay as described above. Measurements were also done in the absence of dDAVP in which urine was collected during free access to food and water. […]
# [1] = free access to food and water, no dDAVP, 300 μg
compound,measurement,setting,value
"CCc1ccc(S(=O)(=O)c2nnn3c2nc(NCc2cccs2)c2sccc23)cc1 [UTBinh-14, [3-(4-Ethyl-benzenesulfonyl)-thieno[2,3-e][1,2,3]triazolo[1,5-a]pyrimidin-5-yl]-thiophen-2-ylmethylamine]",IC50,human UT-B,10.3 nM
same,inhibition of UT-A3 facilitated urea transport,UT-A3,little inhibition
same,cytotoxicity,MDCK cells,no cytotoxicity
same,"urine osmolality, UT-B knockout mice","mice; 300 μg intraperitoneal, dDAVP",did not significantly reduce
same,"urine urea concentration, UT-B knockout mice","mice; 300 μg intraperitoneal, dDAVP",did not significantly reduce
same,"urine osmolality, wild type mice","mice; 300 μg intraperitoneal, dDAVP 1 h later",significantly reduced
same,"effect on dDAVP-stimulated urinary concentration, low-protein diet","mice; 1 week low-protein diet, 300 μg",little effect
same,urine osmolality,mice; [1],reduced
same,urine urea concentration,mice; [1],reduced
same,urine volume,mice; [1],significantly increased
